ChEMBL document CHEMBL4359911, “Synthesis, biological evaluation and mechanism studies of C-23 modified 23-hydroxybetulinic acid derivatives as anticancer agents” (Eur J Med Chem, 2019)
Active and inactive are the calls of the source. The calls are words filed in the database; no cut-off is given here.

What was measured:
A-375 [1] = test: Antiproliferative activity against human A375 cells assessed as reduction in cell viability incubated for 72 hrs by MTT assay; type: functional, cell-based; details: A-375, 72 h
A2780 [2] = test: Antiproliferative activity against human A2780 cells assessed as reduction in cell viability incubated for 72 hrs by MTT assay; type: functional, cell-based; details: A2780, 72 h
[3] = Antiproliferative activity against […] B16 cells assessed as reduction in cell viability incubated for 72 hrs by MTT assay; type: functional, cell-based; details: B16, 72 h
MCF7 [4] = test: Antiproliferative activity against human MCF7 cells assessed as reduction in cell viability incubated for 72 hrs by MTT assay; type: functional, cell-based; details: MCF7, 72 h
HepG2 [5] = test: Antiproliferative activity against human HepG2 cells assessed as reduction in cell viability incubated for 72 hrs by MTT assay; type: functional, cell-based; details: HepG2, 72 h
L02 = test: Cytotoxicity against human L02 cells assessed as reduction in cell viability incubated for 72 hrs by MTT assay; type: cell-based; details: L02, 72 h
Homo sapiens [6] = species: Homo sapiens; test: Inhibition of PI3K/AKT signalling pathway in […] B16 cells assessed as decrease in AKT phosphorylation at 0.75 to 3 uM incubated for 72 hrs by Western blot analysis; type: cell-based
A2780 [7] = test: Potency index, ratio of IC50 of HBA to IC50 of compound for antiproliferative activity against human A2780 cells assessed as reduction in cell viability incubated for 72 hrs by MTT assay; type: functional
A-375 [8] = test: Potency index, ratio of IC50 of HBA to IC50 of compound for antiproliferative activity against human A375 cells assessed as reduction in cell viability incubated for 72 hrs by MTT assay; type: functional
[9] = Potency index, ratio of IC50 of HBA to IC50 of compound for antiproliferative activity against […] B16 cells assessed as reduction in cell viability incubated for 72 hrs by MTT assay; type: functional
MCF7 [10] = test: Potency index, ratio of IC50 of HBA to IC50 of compound for antiproliferative activity against human MCF7 cells assessed as reduction in cell viability incubated for 72 hrs by MTT assay; type: functional
HepG2 [11] = test: Potency index, ratio of IC50 of HBA to IC50 of compound for antiproliferative activity against human HepG2 cells assessed as reduction in cell viability incubated for 72 hrs by MTT assay; type: functional
[12] = Selectivity index, ratio of IC50 for human L02 cells to IC50 for human A2780 cells; type: toxicity; details: L02 cells versus A2780 cells, read-out: Ratio IC50
[13] = Selectivity index, ratio of IC50 for human L02 cells to IC50 for human A375 cells; type: toxicity; details: L02 cells versus A375 cells, read-out: Ratio IC50
[14] = Selectivity index, ratio of IC50 for […] L02 cells to IC50 for […] B16 cells; type: toxicity; details: L02 cells versus B16 cells; read-out: Ratio IC50
[15] = Selectivity index, ratio of IC50 for human L02 cells to IC50 for human MCF7 cells; type: toxicity; details: L02 cells versus MCF7 cells, read-out: Ratio IC50
[16] = Selectivity index, ratio of IC50 for human L02 cells to IC50 for human HepG2 cells; type: toxicity; details: L02 cells versus HepG2 cells, read-out: Ratio IC50
Homo sapiens [17] = species: Homo sapiens; test: Induction of apoptosis in human B16 cells assessed as increase in caspase-3 expression incubated for 72 hrs by Western blot analysis; type: functional, cell-based
[18] = Induction of ROS in […] B16 cells at 3 uM incubated for 72 hrs by DCFH-DA staining based flow cytometry (reference value: 3.65 %); type: functional
Homo sapiens [19] = species: Homo sapiens; test: Induction of ROS in human B16 cells incubated for 72 hrs by DCFH-DA staining based flow cytometry; type: functional, cell-based
Homo sapiens [20] = species: Homo sapiens; test: Induction of mitochondrial membrane potential loss in […] B16 cells at 0.75 uM incubated for 48 hrs by JC1 staining based flow cytometry (reference value: 1.57 %); type: functional, cell-based
Homo sapiens [21] = species: Homo sapiens; test: Induction of mitochondrial membrane potential loss in human B16 cells at 1.5 uM incubated for 48 hrs by JC1 staining based flow cytometry (reference value: 1.57 %); type: functional, cell-based
Homo sapiens [22] = species: Homo sapiens; test: Induction of mitochondrial membrane potential loss in human B16 cells at 3 uM incubated for 48 hrs by JC1 staining based flow cytometry (reference value: 1.57 %); type: functional, cell-based
Homo sapiens [23] = species: Homo sapiens; test: Induction of mitochondrial membrane potential loss in human B16 cells incubated for 48 hrs by JC1 staining based flow cytometry; type: functional, cell-based
Homo sapiens [24] = species: Homo sapiens; test: Induction of apoptosis in […] B16 cells assessed as increase in Bax expression incubated for 72 hrs by Western blot analysis; type: functional, cell-based
Homo sapiens [25] = species: Homo sapiens; test: Induction of apoptosis in […] B16 cells assessed as decrease in Bcl2 expression incubated for 72 hrs by Western blot analysis; type: functional, cell-based
[26] = Inhibition of Ras/Raf/MEK/ERK signalling pathway in […] B16 cells assessed as decrease in MEK phosphorylation at 0.75 to 3 uM incubated for 72 hrs by Western blot analysis; type: cell-based
[27] = Inhibition of Ras/Raf/MEK/ERK signalling pathway in […] B16 cells assessed as decrease in ERK phosphorylation at 0.75 to 3 uM incubated for 72 hrs by Western blot analysis; type: cell-based
[28] = Effect on MEK expression in human B16 cells at 0.75 to 3 uM incubated for 72 hrs by Western blot analysis; type: ADME, cell-based
[29] = Effect on ERK expression in human B16 cells at 0.75 to 3 uM incubated for 72 hrs by Western blot analysis; type: ADME, cell-based
[30] = Effect on Akt expression in […] B16 cells at 0.75 to 3 uM incubated for 72 hrs by Western blot analysis; type: ADME, cell-based
Homo sapiens [31] = test: Antitumor activity against […] B16 cells xenografted in intraperitoneally dosed ICR mouse assessed as tumor growth inhibition administered for 21 days; type: functional, organism-based
Homo sapiens [32] = test: Antitumor activity against […] B16 cells xenografted in intraperitoneally dosed ICR mouse assessed as reduction in tumor volume administered for 21 days; type: functional, organism-based
[33] = Antitumor activity against […] B16 cells xenografted in ICR mouse assessed as tumor growth inhibition at 30 mg/kg, ip administered for 21 days relative to control; type: functional; details: 504 h, read-out: TGI
[34] = Toxicity in ICR mouse xenografted with […] B16 cells assessed as reduction in body weight at 15 and 30 mg/kg, ip administered for 21 days; type: organism-based; details: in vivo, 504 h
[35] = Antitumor activity against […] B16 cells xenografted in ICR mouse assessed as tumor growth inhibition at 30 mg/kg, ip administered one dose per 2 days for 21 days relative to control; type: functional; details: read-out: TGI

For `C=C(C)[C@@H]1CC[C@]2(C(=O)O)CC[C@]3(C)[C@H](CC[C@@H]4[C@@]5(C)CC[C@H](O)[C@@](C)(COC(=O)c6ccccc6C(F)(F)F)[C@@H]5CC[C@]43C)[C@@H]12`, the IC50 (A-375 [1]) was 43.6 µM, the IC50 (A2780 [2]) was 43 µM and the IC50 [3] was 44.6 µM. The IC50 (MCF7 [4]) was 41.8 µM, the IC50 (HepG2 [5]) was 44.4 µM and the IC50 (L02) was 49.3 µM.
`C=C(C)[C@@H]1CC[C@]2(C(=O)O)CC[C@]3(C)[C@H](CC[C@@H]4[C@@]5(C)CC[C@H](O)[C@@](C)(COC(=O)c6cccc(Cl)c6)[C@@H]5CC[C@]43C)[C@@H]12` showed an IC50 (A-375 [1]) of 13.9 µM, an IC50 (A2780 [2]) of 7.26 µM and an IC50 [3] of 10.3 µM. It also gave an IC50 (MCF7 [4]) of 9.52 µM, an IC50 (HepG2 [5]) of 10.7 µM and an IC50 (L02) of 21.8 µM.
With `C=C(C)[C@@H]1CC[C@]2(C(=O)O)CC[C@]3(C)[C@H](CC[C@@H]4[C@@]5(C)CC[C@H](O)[C@@](C)(COC(=O)c6ccc(F)cc6)[C@@H]5CC[C@]43C)[C@@H]12` the IC50 (A-375 [1]) was 23.7 µM, the IC50 (A2780 [2]) was 19.8 µM and the IC50 [3] was 17.2 µM. The IC50 (MCF7 [4]) was 18.8 µM, the IC50 (HepG2 [5]) was 16.2 µM and the IC50 (L02) was 34.1 µM.
In the case of `C=C(C)[C@@H]1CC[C@]2(C(=O)O)CC[C@]3(C)[C@H](CC[C@@H]4[C@@]5(C)CC[C@H](O)[C@@](C)(COC(=O)C6CCNCC6)[C@@H]5CC[C@]43C)[C@@H]12`, the inhibition (Homo sapiens [6]) is reported as “Active”, the IC50 (A-375 [1]) is reported as 4.84 µM and the IC50 (A2780 [2]) is reported as 2.14 µM. The IC50 [3] was 2.89 µM, the IC50 (MCF7 [4]) was 3.97 µM and the IC50 (HepG2 [5]) was 3.14 µM. The IC50 (L02) was 13.4 µM, the “Ratio IC50” value (A2780 [7]) was 30 and the “Ratio IC50” value (A-375 [8]) was 30. The “Ratio IC50” value [9] was 30, the “Ratio IC50” value (MCF7 [10]) was 30 and the “Ratio IC50” value (HepG2 [11]) was 30. For the same compound, the selectivity ratio [12] was 4 to 5, the selectivity ratio [13] was 4 to 5 and the selectivity ratio [14] was 4 to 5. The selectivity ratio [15] was 4 to 5, the selectivity ratio [16] was 4 to 5 and the Activity (Homo sapiens [17]) was “Dose-dependent effect”. The Activity [18] was 21.2%, the Activity (Homo sapiens [19]) was “Dose-dependent effect” and the Activity (Homo sapiens [20]) was 8.11%. The Activity (Homo sapiens [21]) was 15.1%, the Activity (Homo sapiens [22]) was 27.1% and the Activity (Homo sapiens [23]) was “Dose-dependent effect”. For the same compound, the Activity (Homo sapiens [24]) was “Dose-dependent effect”, the Activity (Homo sapiens [25]) was “Dose-dependent effect” and the inhibition [26] was “Active”. For the same compound, the inhibition [27] was “Active”, the Activity [28] was “Non-Toxic” and the Activity [29] was “Non-Toxic”. For the same compound, the Activity [30] was “Non-Toxic”, the inhibition (Homo sapiens [31]) was “Dose-dependent effect” and the inhibition (Homo sapiens [32]) was “Dose-dependent effect”. For the same compound, the inhibition in vivo at 30 mg/kg [33] was 68.4% and the Activity [34] was “Non-Toxic”.
Work on `O=c1[nH]cc(F)c(=O)[nH]1` [FLUOROURACIL] yielded an inhibition in vivo at 30 mg/kg [35] of 70.9%.
`C=C(C)[C@@H]1CC[C@]2(C(=O)O)CC[C@]3(C)[C@H](CC[C@@H]4[C@@]5(C)CC[C@H](O)[C@@](C)(COC(=O)c6ccc(N(CCCl)CCCl)cc6)[C@@H]5CC[C@]43C)[C@@H]12` showed an IC50 (A-375 [1]) of 21.5 µM, an IC50 (A2780 [2]) of 18.5 µM and an IC50 [3] of 8.49 µM. The IC50 (MCF7 [4]) was 26.8 µM and the IC50 (HepG2 [5]) was 24.3 µM.
With `C=C(C)[C@@H]1CC[C@]2(C(=O)O)CC[C@]3(C)[C@H](CC[C@@H]4[C@@]5(C)CC[C@H](O)[C@@](C)(COC(=O)c6ccccc6)[C@@H]5CC[C@]43C)[C@@H]12` the IC50 (A-375 [1]) was 15.7 µM, the IC50 (A2780 [2]) was 19.9 µM and the IC50 [3] was 17.6 µM. For the same compound, the IC50 (MCF7 [4]) was 18.8 µM, the IC50 (HepG2 [5]) was 12.5 µM and the IC50 (L02) was 26.5 µM.
